Data reported in patent publication US6875451B2, “Compositions and methods for the treatment of primary and metastatic neoplastic diseases using arsenic compounds” (PolaRx Biopharmaceuticals Inc., priority 1997, dated 2005).

Columns and labels:
Format in all cases: cell-based
[1] = test system: RPMI-8226; experiment: SRB growth assay, 6 days exposure, leukemia; details: RPMI-8226, 6 days
Method: (§1) Arsenic trioxide (1 mg/ml, 10 mg/ampoule, manufactured by Taylor Pharmaceuticals, Decatur, Ill.) was tested at five concentrations each at 10-fold dilutions, i.e., 10^−5, 10^−6, 10^−7, 10^−8 and 10^−9 μg/ml.
(§2) The in vitro tests were performed by incubating the test cells in the presence of the indicated concentration of arsenic trioxide under standard culture conditions for a designated period of time, which is followed by a sulforhodamine B (SRB) protein assay to estimate cell viability or growth. The cell lines are organized into subpanels according to the origin of the cell lines, e.g., leukemia, breast cancer, etc. A description of the cell lines and method of testing is described in Monk et al. (1997, Anticancer Drug Des. 12:533-41) and Weinstein et al., (1997, Science 275:343-9), which are incorporated herein in their entirety.
(§3) The measurement of an effect is expressed in Percentage Growth (PG). The measured effect of the compound on a cell line is calculated according to one or the other of the following two expressions: If (Mean ODtest−Mean ODzero)≧0. then PG=100×(Mean ODtest−Mean ODzero)/(Mean ODctrl−Mean ODzero) If (Mean ODtest−Mean ODzero)<0. then PG=100×(Mean ODtest−Mean ODzero)/(Mean ODzero where: • Mean ODzero=the average of optical density measurements of SRB-derived color just before exposure of cells to the test compounds; • Mean ODtest=the average of optical density measurements of SRB-derived color after exposure of cells to the test compound for a designated period of time; and • Mean ODctrl=the average of optical density measurements of SRB-derived color after with no exposure of cells to the test compound for a designated period of time
(§4) The first two columns describe the subpanel (e.g., leukemia) and cell line (e.g., CCRF-CEM) involved. The next two columns list the Mean ODzero and Mean ODctrl; the next five columns list the Mean ODtest for each of five different concentrations. Each concentration is expressed as the log10 (molar or μg/ml). The next five columns list the calculated PGs for each concentration. The response parameters GI50, TGI and LC50 are interpolated values representing the concentrations at which the PG is +50, 0, and −50, respectively. Sometimes these response parameters cannot be obtained by interpolation. If, for instance, all of the PGs in a given row exceed +50, then none of the three parameters can be obtained by interpolation. In such a case, the value given for each response parameter is the highest concentration tested and is preceded by a “>” sign. This practice is extended similarly to the other possible situations where a response parameter cannot be obtained by interpolation.
(§5) In the first set, the cells from 56 different cancer cell lines were exposed to five concentrations of arsenic trioxide continuously for two days prior to performing the SRB assay. In the second set, the cells from 50 different cell lines (a subset of the first 56 cell lines, plus the renal cancer cell line 786-0) were exposed continuously for six days prior to the SRB assay.

[2] = test system: K-562; experiment: SRB growth assay, 6 days exposure, leukemia; details: K-562, 6 days
Method: as §1, §2, §3, §4, §5

[3] = test system: MOLT-4; experiment: SRB growth assay, 6 days exposure, leukemia; details: MOLT-4, 6 days
Method: as §1, §2, §3, §4, §5

[4] = test system: SK-MEL-5; experiment: SRB growth assay, 6 days exposure, melanoma; details: SK-MEL-5, 6 days
Method: as §1, §2, §3, §4, §5

[5] = test system: MALMI-3M; experiment: SRB growth assay, 6 days exposure, melanoma
Method: as §1, §2, §3, §4, §5

[6] = test system: UACC-62; experiment: SRB growth assay, 6 days exposure, melanoma; details: UACC-62, 6 days
Method: as §1, §2, §3, §4, §5

[7] = test system: SK-MEL-2; experiment: SRB growth assay, 6 days exposure, melanoma; details: SK-MEL-2, 6 days
Method: as §1, §2, §3, §4, §5

[8] = test system: UACC-257; experiment: SRB growth assay, 6 days exposure, melanoma; details: UACC-257, 6 days
Method: as §1, §2, §3, §4, §5

[9] = read-out: LC50 (the source's name)

Substance: arsenic trioxide
- Mean Optical Densities ([1]; Log 10 Concentration −4.9): 0.065
- Percent Growth ([1]; Log 10 Concentration −4.9): −2%
- Mean Optical Densities ([1]; Log 10 Concentration −5.9): 0.368
- Percent Growth ([1]; Log 10 Concentration −5.9): 22%
- Mean Optical Densities ([1]; Log 10 Concentration −6.9): 1.423
- Percent Growth ([1]; Log 10 Concentration −6.9): 99%
- Mean Optical Densities ([1]; Log 10 Concentration −7.9): 1.263
- Percent Growth ([1]; Log 10 Concentration −7.9): 88%
- Mean Optical Densities ([1]; Log 10 Concentration −8.9): 1.607
- Percent Growth ([1]; Log 10 Concentration −8.9): 113%
- CC50 [1, 9]: > 12.6 µM
- TGI [2]: >1.26E−05
- Mean Optical Densities ([2]; Log 10 Concentration −4.9): 0.096
- Percent Growth ([2]; Log 10 Concentration −4.9): 2%
- Mean Optical Densities ([2]; Log 10 Concentration −5.9): 2.931
- Percent Growth ([2]; Log 10 Concentration −5.9): 97%
- Mean Optical Densities ([2]; Log 10 Concentration −6.9): 3.360
- Percent Growth ([2]; Log 10 Concentration −6.9): 112%
- Mean Optical Densities ([2]; Log 10 Concentration −7.9): 2.992
- Percent Growth ([2]; Log 10 Concentration −7.9): 99%
- Mean Optical Densities ([2]; Log 10 Concentration −8.9): 3.042
- Percent Growth ([2]; Log 10 Concentration −8.9): 101%
- CC50 [2, 9]: > 12.6 µM
- TGI [3]: >1.26E−05
- Mean Optical Densities ([3]; Log 10 Concentration −4.9): 0.113
- Percent Growth ([3]; Log 10 Concentration −4.9): 20%
- Mean Optical Densities ([3]; Log 10 Concentration −5.9): 0.245
- Percent Growth ([3]; Log 10 Concentration −5.9): 47%
- Mean Optical Densities ([3]; Log 10 Concentration −6.9): 0.432
- Percent Growth ([3]; Log 10 Concentration −6.9): 85%
- Mean Optical Densities ([3]; Log 10 Concentration −7.9): 0.228
- Percent Growth ([3]; Log 10 Concentration −7.9): 43%
- Mean Optical Densities ([3]; Log 10 Concentration −8.9): 0.554
- Percent Growth ([3]; Log 10 Concentration −8.9): 111%
- TGI [4]: 4.07E−06
- Mean Optical Densities ([4]; Log 10 Concentration −4.9): 0.013
- Percent Growth ([4]; Log 10 Concentration −4.9): −93%
- Mean Optical Densities ([4]; Log 10 Concentration −5.9): 1.846
- Percent Growth ([4]; Log 10 Concentration −5.9): 96%
- Mean Optical Densities ([4]; Log 10 Concentration −6.9): 1.929
- Percent Growth ([4]; Log 10 Concentration −6.9): 101%
- Mean Optical Densities ([4]; Log 10 Concentration −7.9): 1.864
- Percent Growth ([4]; Log 10 Concentration −7.9): 97%
- Mean Optical Densities ([4]; Log 10 Concentration −8.9): 1.935
- Percent Growth ([4]; Log 10 Concentration −8.9): 102%
- TGI [5]: 2.78E−06
- Mean Optical Densities ([5]; Log 10 Concentration −4.9): 0.005
- Percent Growth ([5]; Log 10 Concentration −4.9): −96%
- Mean Optical Densities ([5]; Log 10 Concentration −5.9): 0.383
- Percent Growth ([5]; Log 10 Concentration −5.9): 50%
- Mean Optical Densities ([5]; Log 10 Concentration −6.9): 0.823
- Percent Growth ([5]; Log 10 Concentration −6.9): 132%
- Mean Optical Densities ([5]; Log 10 Concentration −7.9): 0.595
- Percent Growth ([5]; Log 10 Concentration −7.9): 90%
- Mean Optical Densities ([5]; Log 10 Concentration −8.9): 0.702
- Percent Growth ([5]; Log 10 Concentration −8.9): 110%
- TGI [6]: 2.27E−06
- Mean Optical Densities ([6]; Log 10 Concentration −4.9): 0.001
- Percent Growth ([6]; Log 10 Concentration −4.9): −98%
- Mean Optical Densities ([6]; Log 10 Concentration −5.9): 0.539
- Percent Growth ([6]; Log 10 Concentration −5.9): 34%
- Mean Optical Densities ([6]; Log 10 Concentration −6.9): 1.409
- Percent Growth ([6]; Log 10 Concentration −6.9): 92%
- Mean Optical Densities ([6]; Log 10 Concentration −7.9): 1.460
- Percent Growth ([6]; Log 10 Concentration −7.9): 95%
- Mean Optical Densities ([6]; Log 10 Concentration −8.9): 1.546
- Percent Growth ([6]; Log 10 Concentration −8.9): 101%
- TGI [7]: 5.63E−07
- Percent Growth ([7]; Log 10 Concentration −4.9): −100%
- Mean Optical Densities ([7]; Log 10 Concentration −5.9): 0.128
- Percent Growth ([7]; Log 10 Concentration −5.9): −40%
- Mean Optical Densities ([7]; Log 10 Concentration −6.9): 0.426
- Percent Growth ([7]; Log 10 Concentration −6.9): 74%
- Mean Optical Densities ([7]; Log 10 Concentration −7.9): 0.462
- Percent Growth ([7]; Log 10 Concentration −7.9): 87%
- Mean Optical Densities ([7]; Log 10 Concentration −8.9): 0.491
- Percent Growth ([7]; Log 10 Concentration −8.9): 97%
- TGI [8]: 5.83E−06
- Mean Optical Densities ([8]; Log 10 Concentration −4.9): 0.039
- Percent Growth ([8]; Log 10 Concentration −4.9): −27%
- Mean Optical Densities ([8]; Log 10 Concentration −5.9): 0.504
- Percent Growth ([8]; Log 10 Concentration −5.9): 54%
- Mean Optical Densities ([8]; Log 10 Concentration −6.9): 0.832
- Percent Growth ([8]; Log 10 Concentration −6.9): 94%
- Mean Optical Densities ([8]; Log 10 Concentration −7.9): 0.857
- Percent Growth ([8]; Log 10 Concentration −7.9): 97%
- Mean Optical Densities ([8]; Log 10 Concentration −8.9): 0.872
- Percent Growth ([8]; Log 10 Concentration −8.9): 99%
- CC50 [8, 9]: > 12.6 µM
